Patent publication US20150011463A1, “AGENT FOR PREVENTING OR AM[…] ENDOTHELIAL MALFUNCTION” (KYOWA HAKKO BIO CO., LTD., priority 2012, published 2015)

System: normal human umbilical vein endothelial cell (HUVEC)
Assay: NO production (nitrite in culture supernatant by HPLC) in HUVEC
Assay type: cell-based
Conditions: citrulline final concentration 0.3 mM, 24-hour culture, vs control (PBS)
Method: The cells were cultured in at 37° C., in 5% CO2 incubator, and used for experiment after 4 to 6 passages. Citrulline and reduced glutathione were obtained from Kyowa Hakko Bio.
A cell suspension (0.45 mL) with the adjusted initial cell concentration of 5×10^5 cells/mL was inoculated in a 24-well plate (IWAKI). After 40-hour culture, the media were replaced with those containing citrulline (final concentration 0.3 mM: citrulline group), reduced glutathione (final concentration 1 mM: high-dose glutathione group), and a citrulline and reduced glutathione mixture (citrulline final concentration 0.3 mM; glutathione final concentration 0.3 mM: citrulline+low-dose glutathione group). Media with the sole addition of solvent (PBS) were used as a control group. After 24-hour culture, the cell culture (100 μL) was centrifuged at 12,000 rpm for 10 minutes, and the concentration of nitrite (NO2), which is the stable NO metabolite, in culture supernatant was quantified by HPLC (ENO-20, EICOM).

SMILES: NC(=O)NCCC[C@H](N)C(=O)O [citrulline]
- effect on NO production (concentration of nitrite (NO2) in culture supernatant): no effect
